Where “and” joins values, the source holds several entries; their conditions need not be identical. Identical values can stand only once.
Legend:
Human ASM cells = experiment: EGF induced ASM proliferation ([3H]-thymidine incorporation); format: cell-based; details: for effect on EGF response (ASM proliferation): Mch 10 μM, atropine alone, DHEA-S in the presence or absence of Mch and atropine
Experimental: Human ASM cells were obtained from the distal trachea of transplant donors in compliance with the University of Pennsylvania's Institutional Review Board. Distal trachealis was dissected free of connective tissue and enzymatically digested to yield approximately 1×10^4 human ASM cells. These cells were then grown to confluence in 10% fetal bovine serum and quiesced in serum-free media containing 1% bovine serum albumin for 24 hours. […] After the initial incubation, cells were then exposed to [^3H]-thymidine and DNA synthesis was measured over 24 hours using thymidine incorporation. The cells were scraped and placed on filters which were then counted using a beta counter. All experiments were repeated in a minimum of three human ASM cell lines. All conditions per experiment were run with six replicates.

[1] = Particle size after jet milling or spray drying (Malvern Mastersizer X, light microscope); format: physicochemical; details: two batches
Experimental: Approximately 1 g sample was passed through the jet mill, once, and approximately 2 g sample were passed through the jet mill twice. […] The resulting solution was sonicated for 3 minutes and appeared fully dispersed. The dispersed solutions were tested on a Malvern Mastersizer X with a small volume sampler (SVS) attachment. One sample of dispersed material was tested 5 times. The median particle size or D (v, 0.5) of unmilled material was 52.56 μm and the % RSD (relative standard deviation) was 7.61 for the 5 values. The D (v, 0.5) for a single pass through the jet mill was 3.90 μm and the % RSD was 1.27, and the D (v, 0.5) from a double pass through the jet mill 3.25 μm and the % RSD was 3.10.
The solution was spray-dried with a B-191 Mini Spray-Drier (Buchi, Flawil, Switzerland) with an inlet temperature of 55° C., outlet temperature of 40° C., at 100% aspirator, at 10% pump, nitrogen flow at 40 mbar and spray flow at 600 units. The spray-dried product was suspended in hexane and Span85 surfactant added to reduce agglomeration. The dispersions were sonicated with cooling for 3-5 minutes for complete dispersion and the dispersed solutions tested on a Malvern Mastersizer X with a Small Volume Sampler (SVS) attachment. […] Visual examination by light microscope of the dispersions of each batch confirmed that spray drying produced small respirable size particles. […]

HT-29 SF cells [2] = experiment: Reversal of DHEA effect on cell cycle; format: cell-based, human; details: 25 FM DHEA; supplemented medium; 48 and 72 hours
HT-29 SF cells [3] = experiment: DHEA effect on cell growth; format: cell-based, human; details: 0, 12.5, 25, 50, or 200 μM; 0-72 hours
[4] = Solubility of DHEA-S in NaCl solutions; format: physicochemical; details: 20 mM Na+; Ksp 1316 mM^2; 15° C.
Description: Inhalation of pure water can produce a cough stimulus. […] The temperature effect is weaker at high NaCl concentrations.

[5] = Short-term solution stability of DHEA-S nebulizer formulation; format: physicochemical; details: 10 mg/mL in 0.12% NaCl
Experimental: Aliquots of this solution are filled into clear glass vials and stored at RT (24-26° C.) and at 40° C. The samples are checked daily for DHEA-S content, DHEA content, and appearance. For each time point, duplicate samples are withdrawn and diluted from each vial. […] The study is stopped on day three. […] The solution should easily be stable for the day of reconstitution in a clinical trial. The following section describes the aerosol properties of this formulation.

[6] = Nebulizer studies (Pari LC Plus, by-pass collector and impactor); details: 0.12% NaCl
Experimental: The nebulizer is filled with 5 mL of solution and nebulization is continued until the output became visually insignificant (4½ to 5 min.). Nebulizer solutions are tested using a California Instruments AS-6 6-stage impactor with a USP throat. The impactor is run at 30 L/min for 8 s to collect a sample following one minute of nebulization time. At all other times during the experiment, the aerosol is drawn through the by-pass collector at approximately 33 L/min. The collection apparatus, nebulizer, and impactor are rinsed with mobile phase and assayed by HPLC. […] This volume is selected as the practical upper limit for use in a clinical study.

In the case of `CC(=O)OC(C)C[N+](C)(C)C` (centres unmarked), the “effect on EGF response (ASM proliferation)” value (from here on “effect on EGF response”) (Human ASM cells) was “further augmented”.

In the case of `C[C@]12CC[C@H](OS(=O)(=O)[O-])CC1=CC[C@@H]1[C@@H]2CC[C@]2(C)C(=O)CC[C@@H]12.[Na+]` [Anhydrous DHEA-S], the “mean particle size of spray dried material” value ([1]; Malvern Mastersizer X) was 5.07±0.70 μm and 6.66±0.91 μm and the “mean particle size of spray dried material” value ([1]; visual examination by light microscope) was 2.4 μm and 2.0 μm.

For `CC(C)CCC[C@@H](C)[C@H]1CC[C@H]2[C@@H]3CC=C4C[C@@H](O)CC[C@]4(C)[C@H]3CC[C@]12C` [CH, cholesterol], the “prevention of DHEA-induced S phase depletion (G1 arrest)” value (HT-29 SF cells [2]) was “very little effect at 48 hours and no effect at 72 hours”.

With `C[C@]12CC[C@H](O)CC1=CC[C@@H]1[C@@H]2CC[C@]2(C)C(=O)CC[C@@H]12` [DHEA, 3β-hydroxyandrost-5-en-17-one] the “effect on growth of HT-29 SF cells” value (HT-29 SF cells [3]) was “time- and dose-dependent inhibition of growth”.

For `C[C@]12CC[C@H](OS(=O)(=O)[O-])CC1=CC[C@@H]1[C@@H]2CC[C@]2(C)C(=O)CC[C@@H]12.[Na+]` [DHEA-S, sodium dehydroepiandrostenone sulfate], the “calculated DHEA-S solution concentration” value [4] was 27.5 mM, the “solution appearance on storage” value ([5]; 40° C.) was “became cloudy after two days of storage” and the “solution appearance on storage” value ([5]; RT (24-26° C.)) was “slight precipitate is observed on the third day”. The “highest solution concentration for clinical trial formulation (no precipitate during nebulization)” value [6] was “approximately 7.5 mg/mL” and the “effect on EGF response” value (Human ASM cells) was “attenuate the EGF response”.

With `C[C@@](O)(CCO)CC(=O)O` [MVA, mevalonic acid] the “prevention of DHEA-induced S phase depletion (G1 arrest)” value (HT-29 SF cells [2]) was “partially prevented this effect in the initial 48 hours but not after 72 hours”.

For `CN1[C@@H]2CC[C@H]1C[C@@H](OC(=O)C(CO)c1ccccc1)C2` (some centres unmarked) [atropine], the “effect on Mch augmentation of EGF response” value (Human ASM cells; EGF plus 10 μM Mch) was “reverse the effects of Mch” and the “effect on EGF response” value (Human ASM cells) was “no effect on EGF response”.

For “EGF: growth factor used to induce DNA synthesis in human ASM cells (NSDSECPLSHDGYCLHDGVCMYIEALDKYACNCVVGYIGERCQYRDLKWWELR; Epidermal growth factor; UniProt P01133 971-1023, looked up)”, the “increase in ASM proliferation” value (Human ASM cells; EGF (1 ng/ml), thymidine incorporation) was 8 fold.
